# Assay results: patent US20220356186A1, “PERK INHIBITING PYRROLOPYRIMIDINE COMPOUNDS” (HiberCell, Inc., priority 2019, published 2022)
# Where two headings read alike, the source gives them in different places.
# Tests used:
# [1] = molecular target: T1, EIF2AK3 (PERK) catalytic domain (amino acids 536-1116) (Homo sapiens, UniProt Q9NZJ5); experiment: PERK in vitro activity assay (isolated), TR-FRET kinase assay; format: biochemical; conditions: isolated PERK enzyme, 1.5 μM ATP; read-out: Biochemical IC50
# T1 construct: EIF2AK3 (PERK) catalytic domain (amino acids 536-1116)
# T1 sequence (Q9NZJ5 536-1116): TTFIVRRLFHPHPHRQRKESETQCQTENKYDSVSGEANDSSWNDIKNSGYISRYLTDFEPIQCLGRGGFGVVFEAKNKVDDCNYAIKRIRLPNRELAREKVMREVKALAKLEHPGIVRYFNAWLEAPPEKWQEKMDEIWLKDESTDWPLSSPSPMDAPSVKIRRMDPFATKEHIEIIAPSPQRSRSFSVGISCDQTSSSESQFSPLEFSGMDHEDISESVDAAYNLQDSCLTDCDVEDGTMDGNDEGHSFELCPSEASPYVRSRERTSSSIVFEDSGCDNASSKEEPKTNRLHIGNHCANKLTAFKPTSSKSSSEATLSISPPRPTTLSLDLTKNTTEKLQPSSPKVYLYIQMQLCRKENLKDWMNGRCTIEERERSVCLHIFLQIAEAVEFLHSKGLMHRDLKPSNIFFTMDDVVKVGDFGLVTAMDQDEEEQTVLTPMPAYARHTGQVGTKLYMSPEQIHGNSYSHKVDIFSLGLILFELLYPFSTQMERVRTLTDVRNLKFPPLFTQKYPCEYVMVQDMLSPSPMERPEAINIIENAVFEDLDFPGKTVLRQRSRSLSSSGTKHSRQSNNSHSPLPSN
# In short: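 TR-FRET read-out: after EDTA stop (10 mM final), Tb-labelled phospho-eIF2a antibody (2 nM) for 90 min; IC50 via 4-parameter nonlinear fit. Reaction: PERK aa 536-1116, GFP-eIF2a 100-200 nM, HEPES pH 7.5 with MgCl2/EGTA/Brij-35, 45 min, room temperature, started by enzyme.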
# [2] = system: GFP-eIF2α in HEK293 cells; experiment: PERK cellular assay, TR-FRET in HEK293-EGFP-eIF2a cells after tunicamycin-induced ER stress; format: cell-based; conditions: HEK293-EGFP-eIF2a cells, tunicamycin 2 hours, read-out: Cellular eIF2α IC50
# In short: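 Compounds were added 30 min before a 2 h tunicamycin ([…]) challenge of lentivirally made GFP-eIF2α HEK293 cells, 5000/well; lysate TR-FRET ratio was the read-out.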
IC50 [1],SMILES,IC50 [2],"IC50 ([2]; Homo sapiens, HEK293, 2 h)"
101 to 250 nM,"Cc1nc(N)c2c(-c3ccc(NC(=O)C(O)c4cccc(C(F)(F)F)c4)cc3C)cn(C)c2n1 (stereo not drawn) [Example 51, N-(4-(4-amino-2,7-dimethyl-7H-pyrrolo[2,3-d]pyrimidin-5-yl)-3-methylphenyl)-2-hydroxy-2-(3-(trifluoromethyl)phenyl)acetamide]",501 to 1000 nM,–
1 to 25 nM,"Cc1nc(N)c2c(-c3ccc(NC(=O)C(O)c4cc(F)cc(F)c4)cc3C)cn(C)c2n1 (stereo not drawn) [Example 52, N-(4-(4-amino-2,7-dimethyl-7H-pyrrolo[2,3-d]pyrimidin-5-yl)-3-methylphenyl)-2-(3,5-difluorophenyl)-2-hydroxyacetamide]",1 to 25 nM,–
26 to 50 nM,"Cc1nc(N)c2c(-c3ccc(NC(=O)C(O)c4cc(F)cc(F)c4)cc3C)cn(C)c2n1 (stereo not drawn) [Example 53, N-(4-(4-amino-2,7-dimethyl-7H-pyrrolo[2,3-d]pyrimidin-5-yl)-3-methylphenyl)-2-(3,5-difluorophenyl)-2-hydroxyacetamide]",251 to 500 nM,–
1 to 25 nM,"Cc1cc(F)cc(C(O)C(=O)Nc2ccc(-c3cn(C)c4nc(C)nc(N)c34)c(C)c2)c1 (stereo not drawn) [Example 56, N-(4-(4-amino-2,7-dimethyl-7H-pyrrolo[2,3-d]pyrimidin-5-yl)-3-methylphenyl)-2-(3-fluoro-5-methylphenyl)-2-hydroxyacetamide]",1 to 25 nM,–
26 to 50 nM,"Cc1cc(F)cc(C(O)C(=O)Nc2ccc(-c3cn(C)c4nc(C)nc(N)c34)c(C)c2)c1 (stereo not drawn) [Example 57, N-(4-(4-amino-2,7-dimethyl-7H-pyrrolo[2,3-d]pyrimidin-5-yl)-3-methylphenyl)-2-(3-fluoro-5-methylphenyl)-2-hydroxyacetamide]",101 to 250 nM,–
1 to 25 nM,"CCc1cc(F)cc(C(O)C(=O)Nc2ccc(-c3cn(C)c4nc(C)nc(N)c34)c(C)c2)c1 (stereo not drawn) [Example 58, N-(4-(4-amino-2,7-dimethyl-7H-pyrrolo[2,3-d]pyrimidin-5-yl)-3-methylphenyl)-2-(3-ethyl-5-fluorophenyl)-2-hydroxyacetamide]",51 to 100 nM,–
51 to 100 nM,"CCc1cc(F)cc(C(O)C(=O)Nc2ccc(-c3cn(C)c4nc(C)nc(N)c34)c(C)c2)c1 (stereo not drawn) [Example 59, N-(4-(4-amino-2,7-dimethyl-7H-pyrrolo[2,3-d]pyrimidin-5-yl)-3-methylphenyl)-2-(3-ethyl-5-fluorophenyl)-2-hydroxyacetamide]",251 to 500 nM,–
1 to 25 nM,"Cc1cccc(C(O)C(=O)Nc2ccc(-c3cn(C)c4ncnc(N)c34)c(C)c2)n1 (stereo not drawn) [Example 60, N-(4-(4-amino-7-methyl-7H-pyrrolo[2,3-d]pyrimidin-5-yl)-3-methylphenyl)-2-hydroxy-2-(6-methylpyridin-2-yl)acetamide]",–,101 to 250 nM
101 to 250 nM,"Cc1nc(N)c2c(-c3ccc(NC(=O)C(O)c4cccc(C(F)(F)F)n4)cc3C)cn(C)c2n1 (stereo not drawn) [Example 61, N-(4-(4-amino-2,7-dimethyl-7H-pyrrolo[2,3-d]pyrimidin-5-yl)-3-methylphenyl)-2-hydroxy-2-(6-(trifluoromethyl)pyridin-2-yl)acetamide]",501 to 1000 nM,–
51 to 100 nM,"Cc1nc(N)c2c(-c3ccc(NC(=O)C(O)c4cccc(C(F)(F)F)n4)cc3C)cn(C)c2n1 (stereo not drawn) [Example 62, N-(4-(4-amino-2,7-dimethyl-7H-pyrrolo[2,3-d]pyrimidin-5-yl)-3-methylphenyl)-2-hydroxy-2-(6-(trifluoromethyl)pyridin-2-yl)acetamide]",2000 to 3000 nM,–
101 to 250 nM,"Cc1nc(N)c2c(-c3ccc(NC(=O)C(O)c4cccc5c4OCC5)cc3C)cn(C)c2n1 (stereo not drawn) [Example 63, N-(4-(4-amino-2,7-dimethyl-7H-pyrrolo[2,3-d]pyrimidin-5-yl)-3-methylphenyl)-2-(2,3-dihydrobenzofuran-7-yl)-2-hydroxyacetamide]",–,2000 to 3000 nM
101 to 250 nM,"CCc1nc(N)c2c(-c3ccc(NC(=O)C(O)c4cccc(F)c4)cc3C)cn(C)c2n1 (stereo not drawn) [Example 67, N-(4-(4-amino-2-ethyl-7-methyl-7H-pyrrolo[2,3-d]pyrimidin-5-yl)-3-methylphenyl)-2-(3-fluorophenyl)-2-hydroxyacetamide]",–,1000 to 2000 nM
